Test results from patent publication US12011444B2, “N-substituted indole derivatives as PGE2 receptor modulators” (Idorsia Pharmaceuticals Ltd, priority 2015, dated 2024).
pIC50: −log10 of the molar value.

Key:
PTGER2 (EP2) = PTGER2 (EP2) (Homo sapiens (Human), UniProt P43116); test: hEP2 b-arrestin assay (PathHunter HEK 293 PTGER2 b-arrestin cells); format: cell-based
Outline: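 HEK293 cells expressing ProLink-tagged EP2 and EA-fused β-arrestin 2 (enzyme fragment complementation) were seeded 24 h, pre-incubated with compound 15 min at 37 °C, then stimulated with 5 μM PGE2 (final) for 120 min.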

PTRGER4 (EP4) = PTRGER4 (EP4) (Homo sapiens (Human), UniProt P35408); test: hEP4 b-arrestin assay (PathHunter HEK 293 PTGER4 b-arrestin cells); format: cell-based
Outline: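 Stably transfected HEK293 cells carrying EP4–ProLink and β-arrestin 2–EA (β-gal fragment complementation), pre-incubated with compound 15 min at 37 °C, then stimulated with PGE2 (20 nM final) for 120 min at 37 °C. Chemiluminescence read after 1 h detection reagent at room temperature; activity per concentration expressed as percent of DMSO control.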

[1] = hEP2 b-arrestin assay (values without asterisk)
[2] = hEP4 b-arrestin assay (values without asterisk)
[3] = antagonistic activity on hEP2, mean where measured multiple times
[4] = antagonistic activity on hEP4, mean where measured multiple times

Sequence of PTGER2 (EP2) (P43116 whole entry, the tested form may be a part): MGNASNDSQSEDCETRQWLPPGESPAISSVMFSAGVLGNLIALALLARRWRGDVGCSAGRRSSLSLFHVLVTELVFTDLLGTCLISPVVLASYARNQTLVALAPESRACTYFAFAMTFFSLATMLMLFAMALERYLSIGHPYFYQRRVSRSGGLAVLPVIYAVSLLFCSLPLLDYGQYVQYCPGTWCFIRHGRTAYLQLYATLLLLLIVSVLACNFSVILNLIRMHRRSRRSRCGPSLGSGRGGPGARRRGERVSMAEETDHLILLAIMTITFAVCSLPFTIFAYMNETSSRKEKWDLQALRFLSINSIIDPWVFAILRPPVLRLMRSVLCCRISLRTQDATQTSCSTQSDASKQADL
Sequence of PTRGER4 (EP4) (P35408 whole entry, looked up, the tested form may be a part): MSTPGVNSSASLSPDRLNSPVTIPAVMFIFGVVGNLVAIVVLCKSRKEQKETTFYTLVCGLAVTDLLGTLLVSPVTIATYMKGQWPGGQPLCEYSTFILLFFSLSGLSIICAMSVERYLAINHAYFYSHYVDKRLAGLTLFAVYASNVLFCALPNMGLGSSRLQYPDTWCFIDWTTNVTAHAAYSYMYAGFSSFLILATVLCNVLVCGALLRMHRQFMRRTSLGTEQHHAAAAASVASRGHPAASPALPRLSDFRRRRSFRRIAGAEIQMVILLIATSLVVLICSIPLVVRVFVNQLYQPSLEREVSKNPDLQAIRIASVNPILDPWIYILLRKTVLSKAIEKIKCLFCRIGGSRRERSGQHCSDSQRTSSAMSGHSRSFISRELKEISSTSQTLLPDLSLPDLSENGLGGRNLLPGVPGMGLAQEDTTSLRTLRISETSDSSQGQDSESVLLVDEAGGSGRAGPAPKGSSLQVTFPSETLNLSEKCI

| Compound | pIC50 (PTGER2 (EP2); [1]) | pIC50 (PTRGER4 (EP4); [2]) | pIC50 (PTGER2 (EP2); [3]) | pIC50 (PTRGER4 (EP4); [4]) |
| --- | --- | --- | --- | --- |
| COc1ccc(F)c2c1cc(C#N)n2CCNc1cc(-c2ccc(C(=O)O)c(SC(C)C)c2)ncn1 [Example 937, 4-{6-[2-(2-Cyano-7-fluoro-4-methoxy-indol-1-yl)-ethylamino]-pyrimidin-4-yl}-2-isopropylsulfanyl-benzoic acid] | 7.68 | 7.89 | – | – |
| Cc1cc(F)cc2c1cc(C)n2CCNc1cc(-c2ccc(-c3cc(O)no3)cc2)ncn1 [compound 200, 5-(4-{6-[2-(6-Fluoro-2,4-dimethyl-indol-1-yl)-ethylamino]-pyrimidin-4-yl}-phenyl)-isoxazol-3-ol] | – | – | 7.43 | 6.95 |
| CC(C)Cc1cc(-c2cc(NCCn3c(C#N)cc4ccccc43)ncn2)ccc1C(=O)O [compound 165, 4-{6-[2-(2-Cyano-indol-1-yl)-ethylamino]-pyrimidin-4-yl}-2-isobutyl-benzoic acid] | – | – | 7.72 | 6.64 |
| COc1ccc(F)c2c1cc(C)n2CCNc1cc(-c2cc(OCC(F)(F)F)c(C(=O)O)s2)ncn1 [Example 832, 5-{6-[2-(7-Fluoro-4-methoxy-2-methyl-indol-1-yl)-ethylamino]-pyrimidin-4-yl}-3-(2,2,2-trifluoro-ethoxy)-thiophene-2-carboxylic acid] | 8.30 | 7.60 | – | – |
| Cc1cc2c(F)ccc(F)c2n1CCNc1cc(-c2ccc(C(=O)O)c(C3CC3)c2)ncn1 [compound 173, 2-Cyclopropyl-4-{6-[2-(4,7-difluoro-2-methyl-indol-1-yl)-ethylamino]-pyrimidin-4-yl}-benzoic acid] | – | – | 8.30 | 6.05 |
| CCOc1cc(-c2cc(NCCn3c(C)cc4cc(Cl)cc(Cl)c43)ncn2)ccc1C(=O)O [compound 153] | – | – | 6.69 | 6.13 |
| Cc1cc(F)c(F)c2c1cc(C)n2CCNc1cc(-c2ccc3cc[nH]c3c2)ncn1 [compound 59, [2-(6,7-Difluoro-2,4-dimethyl-indol-1-yl)-ethyl]-[6-(1H-indol-6-yl)-pyrimidin-4-yl]-amine] | – | – | 6.67 | 6.31 |
| COc1ccc(F)c2c1cc(C#N)n2CCNc1cc(-c2ccc(OCCO)cc2)ncn1 [Example 964, 7-Fluoro-1-(2-{6-[4-(2-hydroxy-ethoxy)-phenyl]-pyrimidin-4-ylamino}-ethyl)-4-methoxy-1H-indole-2-carbonitrile] | 7.39 | 7.66 | – | – |
| COc1c(-c2cc(NCCn3c(C)cc4c(OC)ccc(F)c43)ncn2)csc1C(=O)O [compound 215] | – | – | 6.86 | 6.01 |
| CCOc1cc(-c2cc(NCCn3c(C)cc4cc(F)c(F)c(F)c43)ncn2)sc1C(=O)O [compound 273] | – | – | 9.00 | 7.17 |
| COc1cccc2c1cc(C)n2CCNc1cc(-c2cc(F)c(C(=O)O)s2)ncn1 [compound 49] | – | – | 8.40 | 6.63 |
| CCc1cc(-c2cc(NCCn3c(C)cc4c(OC)ccc(Cl)c43)ncn2)sc1C(=O)O [compound 225] | – | – | 7.60 | 6.91 |
| COc1ccc(F)c2c1cc(C)n2CCNc1cc(-c2cc(C)c(C(=O)O)c(Cl)c2)ncn1 [compound 156] | – | – | 7.11 | 7.03 |
| CCOc1cc(-c2cc(NCCn3c(C)cc4c(C)c(F)cc(F)c43)ncn2)sc1C(=O)O [compound 162, 5-{6-[2-(5,7-Difluoro-2,4-dimethyl-indol-1-yl)-ethylamino]-pyrimidin-4-yl}-3-ethoxy-thiophene-2-carboxylic acid] | – | – | 8.52 | 8.40 |
| COc1ccc(Cl)c2c1cc(C)n2CCNc1cc(-c2cc(C)c(C(=O)O)c(F)c2)ncn1 [compound 276] | – | – | 7.19 | 6.05 |
| COc1ccc(F)c2c1cc(C#N)n2CCNc1cc(-c2cccc3[nH]ccc23)ncn1 [Example 969, 7-Fluoro-1-{2-[6-(1H-indol-4-yl)-pyrimidin-4-ylamino]-ethyl)-4-methoxy-1H-indole-2-carbonitrile] | 7.25 | 7.60 | – | – |
